Assay results as given in PMC12615753, “Glutathione as a taste modulator: molecular mechanisms of interaction with umami and sweet taste receptors” (Food Chemistry: Molecular Sciences, 2025).

Target: T1, hTAS1R1 R277A/rTAS1R3 (Homo sapiens, UniProt Q7RTX1, R277A)
T1 construct: UniProtKB number Q7RTX1–1); expressed in transfected cells; host or cells: HEK293T/17 (ATCC CRL-11268)
T1 sequence (Q7RTX1 21-841 R277A): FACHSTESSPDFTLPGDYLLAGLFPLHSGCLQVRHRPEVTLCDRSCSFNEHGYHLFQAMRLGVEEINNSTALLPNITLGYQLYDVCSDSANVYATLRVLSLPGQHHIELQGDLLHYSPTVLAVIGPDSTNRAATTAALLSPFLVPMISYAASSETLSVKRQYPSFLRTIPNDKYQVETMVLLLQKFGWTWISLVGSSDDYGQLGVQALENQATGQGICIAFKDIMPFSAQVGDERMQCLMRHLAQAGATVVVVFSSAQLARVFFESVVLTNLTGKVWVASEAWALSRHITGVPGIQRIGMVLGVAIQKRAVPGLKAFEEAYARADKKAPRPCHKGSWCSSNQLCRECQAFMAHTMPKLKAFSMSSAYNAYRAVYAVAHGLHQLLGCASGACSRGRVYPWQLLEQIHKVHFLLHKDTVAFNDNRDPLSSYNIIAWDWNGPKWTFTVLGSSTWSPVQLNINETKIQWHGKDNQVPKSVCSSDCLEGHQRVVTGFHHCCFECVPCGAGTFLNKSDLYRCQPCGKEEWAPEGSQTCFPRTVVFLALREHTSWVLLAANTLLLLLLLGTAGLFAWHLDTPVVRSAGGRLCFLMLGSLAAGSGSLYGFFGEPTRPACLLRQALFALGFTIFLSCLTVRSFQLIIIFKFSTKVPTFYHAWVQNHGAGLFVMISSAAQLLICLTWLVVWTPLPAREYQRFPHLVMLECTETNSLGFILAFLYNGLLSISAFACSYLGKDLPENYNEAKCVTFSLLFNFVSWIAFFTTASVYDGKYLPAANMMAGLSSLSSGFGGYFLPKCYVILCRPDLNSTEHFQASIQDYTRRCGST
T1 sequence (Q923K1 21-858 partner): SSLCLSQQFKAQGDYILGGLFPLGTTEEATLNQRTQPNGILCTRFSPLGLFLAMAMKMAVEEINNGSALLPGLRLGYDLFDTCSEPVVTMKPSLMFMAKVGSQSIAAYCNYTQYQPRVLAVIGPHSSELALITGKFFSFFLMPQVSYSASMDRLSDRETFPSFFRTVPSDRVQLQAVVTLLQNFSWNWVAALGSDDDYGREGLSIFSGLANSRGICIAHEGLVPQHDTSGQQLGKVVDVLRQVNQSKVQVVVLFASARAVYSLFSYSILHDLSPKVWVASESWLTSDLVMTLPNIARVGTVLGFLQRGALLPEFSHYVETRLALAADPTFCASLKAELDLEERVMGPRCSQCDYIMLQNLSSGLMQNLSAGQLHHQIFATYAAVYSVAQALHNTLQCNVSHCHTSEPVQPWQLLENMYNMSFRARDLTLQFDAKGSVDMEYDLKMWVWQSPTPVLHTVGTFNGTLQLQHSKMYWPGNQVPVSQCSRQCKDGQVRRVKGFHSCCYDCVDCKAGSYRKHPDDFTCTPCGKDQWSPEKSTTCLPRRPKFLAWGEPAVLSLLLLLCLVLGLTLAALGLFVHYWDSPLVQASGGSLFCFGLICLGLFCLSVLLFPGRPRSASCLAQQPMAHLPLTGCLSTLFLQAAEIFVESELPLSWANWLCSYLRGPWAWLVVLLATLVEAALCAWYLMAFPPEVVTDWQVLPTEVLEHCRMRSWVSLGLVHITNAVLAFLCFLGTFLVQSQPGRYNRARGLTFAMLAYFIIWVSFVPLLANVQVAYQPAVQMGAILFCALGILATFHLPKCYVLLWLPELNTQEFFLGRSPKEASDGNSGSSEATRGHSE
Experiment: Calcium assay, hTAS1R1 mutant co-expressed with rTAS1R3
Type: cell-based, rat

SMILES | EC50 [µM] | effect of the added compound (1 mM) on the response to L-Glu (R277A) | response to the agonist alone, vs WT (R277A) | Max ∆F/F0 (R277A, GSH) | R1 = mutant EC50/WT EC50 (R277A, GSH)
N[C@@H](CCC(=O)N[C@@H](CS)C(=O)NCC(=O)O)C(=O)O [GSH, γ-L-glutamyl-L-cysteinyl-glycine] | 1840 ± 174 | did not affect | significantly increased the initial amplitude | 0.85 ± 0.02 | 0.7
N[C@@H](CCC(=O)O)C(=O)O [L-Glu, L-glutamic acid, reference compound] | – | – | increased the amplitude | – | –
